Patent US11970498B2, “CDK2 inhibitors” (BLUEPRINT MEDICINES CORPORATION, priority 2021, dated 2024)

How the values were obtained:
CDK1/Cyclin B1, GST-tag = biological target: T1, CDK1/Cyclin B1, GST-tag (Homo sapiens, UniProt P06493); experiment: CDK1/Cyclin B1 biochemical phosphorylation assay (Caliper mobility shift); settings: apparent IC50; 1.0 mM ATP or ATP Km; 1.5 nM enzyme; 25° C.
T1 construct: GST
Method in brief: (§1)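 Caliper electrophoretic separation of substrate and phosphopeptide gave apparent IC50s. Enzymes: CDK1/Cyclin B1 GST-tag 1.5 nM, CDK2/Cyclin E 1.25 nM; ATP 1.0 mM or at Km; 7.5 µM FL-peptide; pH 7.5 HEPES buffer, 1% DMSO; room temperature until 10–20% phosphorylated, then EDTA quench.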

CDK2/Cyclin E = CDK2/Cyclin E (Homo sapiens, UniProt P24941); experiment: CDK2/Cyclin E biochemical phosphorylation assay (Caliper mobility shift); settings: apparent IC50; 1.0 mM ATP or ATP Km; 1.25 nM enzyme; 25° C.; read-out: CDK2/cyclin E1 IC50
Method in brief: as §1

T1 sequence (P06493 whole entry): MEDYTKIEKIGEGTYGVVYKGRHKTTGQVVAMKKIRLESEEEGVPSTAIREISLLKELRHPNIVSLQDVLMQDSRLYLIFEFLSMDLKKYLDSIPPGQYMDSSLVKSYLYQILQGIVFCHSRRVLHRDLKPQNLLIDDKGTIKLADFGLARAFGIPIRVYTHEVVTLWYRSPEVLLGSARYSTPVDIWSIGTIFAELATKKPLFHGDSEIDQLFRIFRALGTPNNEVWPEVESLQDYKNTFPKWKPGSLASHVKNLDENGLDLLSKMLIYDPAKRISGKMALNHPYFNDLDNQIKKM
T1 sequence (P14635 whole entry partner): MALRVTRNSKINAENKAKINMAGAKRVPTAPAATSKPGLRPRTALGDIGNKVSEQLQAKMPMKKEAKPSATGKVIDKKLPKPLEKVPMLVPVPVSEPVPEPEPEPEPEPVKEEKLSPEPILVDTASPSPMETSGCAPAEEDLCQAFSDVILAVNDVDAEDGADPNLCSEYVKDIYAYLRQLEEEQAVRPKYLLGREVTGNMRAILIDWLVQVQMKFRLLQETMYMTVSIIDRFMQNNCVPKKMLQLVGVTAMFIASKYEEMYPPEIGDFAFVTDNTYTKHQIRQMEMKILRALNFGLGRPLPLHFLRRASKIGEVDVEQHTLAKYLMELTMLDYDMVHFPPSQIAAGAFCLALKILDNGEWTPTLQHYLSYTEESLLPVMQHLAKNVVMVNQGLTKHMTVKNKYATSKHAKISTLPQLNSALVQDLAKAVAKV

Row | Structure (SMILES) | IC50 (CDK1/Cyclin B1, GST-tag) | IC50 (CDK2/Cyclin E)
1 | COc1cc(Nc2cnc3cnn([C@@H](C)c4cncs4)c3n2)n[nH]1 [Example 74, (S)-N-(5-methoxy-1H-pyrazol-3-yl)-1-(1-(thiazol-5-yl)ethyl)-1H-pyrazolo[3,4-b]pyrazin-6-amine] | ≥ 0.5 µM | 0.02 to 0.03 µM
2 | COc1cc(Nc2cnc3cnn(Cc4cncs4)c3n2)n[nH]1 [Example 75, N-(5-methoxy-1H-pyrazol-3-yl)-1-(thiazol-5-ylmethyl)-1H-pyrazolo[3,4-b]pyrazin-6-amine] | ≥ 0.5 µM | 0.02 to 0.03 µM
3 | COc1cc(Nc2cnc3cnn(Cc4ccc(F)nc4)c3n2)n[nH]1 [Example 76, 1-((6-fluoropyridin-3-yl)methyl)-N-(5-methoxy-1H-pyrazol-3-yl)-1H-pyrazolo[3,4-b]pyrazin-6-amine] | ≥ 0.5 µM | 0.02 to 0.03 µM
4 | CC(C)(C)n1ncc2ncc(Nc3cc(OC(F)F)[nH]n3)nc21 [Example 79, 1-(tert-butyl)-N-(5-(difluoromethoxy)-1H-pyrazol-3-yl)-1H-pyrazolo[3,4-b]pyrazin-6-amine] | ≥ 0.5 µM | 0.02 to 0.03 µM
5 | FC(F)Oc1cc(Nc2cnc3cnn(C[C@H]4[C@@H]5COC[C@@H]54)c3n2)n[nH]1 [Example 81, 1-(((1R,5S,6s)-3-oxabicyclo[3.1.0]hexan-6-yl)methyl)-N-(5-(difluoromethoxy)-1H-pyrazol-3-yl)-1H-pyrazolo[3,4-b]pyrazin-6-amine] | ≥ 0.5 µM | ≤ 0.01 µM
6 | C[C@H](c1ccccn1)n1ncc2ncc(Nc3cc(OC(F)F)[nH]n3)nc21 [Example 82, (R)-N-(5-(difluoromethoxy)-1H-pyrazol-3-yl)-1-(1-(pyridin-2-yl)ethyl)-1H-pyrazolo[3,4-b]pyrazin-6-amine] | ≥ 0.5 µM | 0.02 to 0.03 µM
7 | Cc1nn(Cc2cccnc2)c2nc(Nc3cc(OC(F)F)[nH]n3)cnc12 [Example 84, N-(5-(difluoromethoxy)-1H-pyrazol-3-yl)-3-methyl-1-(pyridin-3-ylmethyl)-1H-pyrazolo[3,4-b]pyrazin-6-amine] | ≥ 0.5 µM | ≤ 0.01 µM
8 | FC(F)Oc1cc(Nc2cnc3cnn(CC4COC4)c3n2)n[nH]1 [Example 85, N-(5-(difluoromethoxy)-1H-pyrazol-3-yl)-1-(oxetan-3-ylmethyl)-1H-pyrazolo[3,4-b]pyrazin-6-amine] | ≥ 0.5 µM | 0.01 to 0.02 µM

More lines, now with the values ahead:

Row | IC50 (CDK1/Cyclin B1, GST-tag) | IC50 (CDK2/Cyclin E) | Structure (SMILES)
9 | ≥ 0.5 µM | 0.01 to 0.02 µM | COc1cc(Nc2cnc3cnn([C@H](C)C4CC4)c3n2)n[nH]1 [Example 73, (R)-1-(1-cyclopropylethyl)-N-(5-methoxy-1H-pyrazol-3-yl)-1H-pyrazolo[3,4-b]pyrazin-6-amine]
10 | 0.1 to 0.5 µM | ≤ 0.01 µM | C[C@@H](C1CCOCC1)n1ncc2ncc(Nc3cc(OC(F)F)[nH]n3)nc21 [Example 77, (S)-N-(5-(difluoromethoxy)-1H-pyrazol-3-yl)-1-(1-(tetrahydro-2H-pyran-4-yl)ethyl)-1H-pyrazolo[3,4-b]pyrazin-6-amine]
11 | ≥ 0.5 µM | 0.03 to 0.1 µM | FC(F)Oc1cc(Nc2cnc3cnn([C@@H]4CCCOC4)c3n2)n[nH]1 [Example 78, (R)-N-(5-(difluoromethoxy)-1H-pyrazol-3-yl)-1-(tetrahydro-2H-pyran-3-yl)-1H-pyrazolo[3,4-b]pyrazin-6-amine]
12 | ≥ 0.5 µM | ≤ 0.01 µM | FC(F)Oc1cc(Nc2cnc3cnn(CC4CC4)c3n2)n[nH]1 [Example 80, 1-(cyclopropylmethyl)-N-(5-(difluoromethoxy)-1H-pyrazol-3-yl)-1H-pyrazolo[3,4-b]pyrazin-6-amine]
13 | ≥ 0.5 µM | ≤ 0.01 µM | FC(F)Oc1cc(Nc2cnc3cnn(C4CCOCC4)c3n2)n[nH]1 [Example 83, N-(5-(difluoromethoxy)-1H-pyrazol-3-yl)-1-(tetrahydro-2H-pyran-4-yl)-1H-pyrazolo[3,4-b]pyrazin-6-amine]
14 | ≥ 0.5 µM | ≤ 0.01 µM | FC(F)Oc1cc(Nc2cnc3cnn(C[C@H]4COCCO4)c3n2)n[nH]1 [Example 86, (S)-1-((1,4-dioxan-2-yl)methyl)-N-(5-(difluoromethoxy)-1H-pyrazol-3-yl)-1H-pyrazolo[3,4-b]pyrazin-6-amine]
